Laboratory results reported in patent US20200339625A1, “NOVEL RADIOMETAL-BINDING COMPOUNDS FOR DIAGNOSIS OR TREATMENT OF PROSTATE SPECIFIC MEMBRANE ANTIGEN-EXPRESSING CANCER” (PROVINCIAL HEALTH SERVICES AUTHORITY, priority 2017, published 2020).
Values belong to the compound of their own block, whether it stands above or below them.

Assays:
[1] = tested on: mice bearing PSMA-expressing LNCAP cancer xenografts; test: Biodistribution of 68Ga-labeled compounds; type: in vivo
Description: (§1) Imaging and biodistribution experiments were performed using NODSCID 1L2RyKO male mice. Mice were anesthetized by inhalation with 2% isoflurane in oxygen, and implanted subcutaneously with 1×10^7 LNCaP cells behind left shoulder. Mice were imaged or used in biodistribution studies when the tumor grew up to reach 5-8 mm in diameter during 5-6 weeks.
For biodistribution studies, the mice were injected with the radiotracer as described above. At predetermined time points (1 or 3 h), the mice was anesthetized with 2% isoflurane inhalation, and euthanized by CO2 inhalation. Blood was withdrawn immediately from the heart, and the organs/tissues of interest were collected. The collected organs/tissues were weighed and counted using an automatic gamma counter. The uptake in each organ/tissue was normalized to the injected dose using a standard curve, and expressed as the percentage of the injected dose per gram of tissue (% ID/g).

[2] = tested on: mice bearing LNCaP tumor xenografts; test: PET/CT imaging of 68Ga-labeled compounds; type: in vivo; details: for change of tumor uptake from 1 h to 3 h post-injection: PET/CT images; for blood retention (qualitative): PET/CT images at 1 h and 3 h post-injection, comparison within the figure
Description: 2.17 PET/CT Imaging and Biodistribution
as §1
PET imaging experiments were conducted using Siemens Inveon micro PET/CT scanner. Each tumor bearing mouse was injected 6-8 MBq of 68Ga-labeled tracer through the tail vein under anesthesia (2% isoflurane in oxygen). The mice were allowed to recover and roam freely in their cage. After 50 min, the mice were sedated again with 2% isoflurane in oxygen inhalation and positioned in the scanner. A 10-min CT scan was conducted first for localization and attenuation correction after segmentation for reconstructing the PET images. Then, a 10-min static PET imaging was performed to determined uptake in tumor and other organs. The mice were kept warm by a heating pad during acquisition. For imaging studies acquired at 3 h post-injection (p.i.), the mice were placed in the micro PET/CT scanner at 170 min p.i. Then, the CT acquisitions were conducted as described above, a 15-min static PET imaging was performed to determined uptake in tumor and other organs.

- Adrenal glands uptake ([1]; 1 h post-injection): 5.51 ± 1.56 % ID/g
- Blood uptake ([1]; 1 h post-injection): 22.1 ± 2.04 % ID/g
- Bone uptake ([1]; 1 h post-injection): 1.59 ± 0.44 % ID/g
- Brain uptake ([1]; 1 h post-injection): 0.29 ± 0.04 % ID/g
- Fat uptake ([1]; 1 h post-injection): 2.20 ± 0.41 % ID/g
- Heart uptake ([1]; 1 h post-injection): 5.20 ± 0.59 % ID/g
- Intestine uptake ([1]; 1 h post-injection): 1.52 ± 0.21 % ID/g
- Kidneys uptake ([1]; 1 h post-injection): 31.1 ± 4.40 % ID/g
- Lacrimal uptake ([1]; 1 h post-injection): 1.82 ± 1.46 % ID/g
- Liver uptake ([1]; 1 h post-injection): 3.35 ± 1.08 % ID/g
- Lungs uptake ([1]; 1 h post-injection): 8.37 ± 1.10 % ID/g
- Muscle uptake ([1]; 1 h post-injection): 1.60 ± 0.19 % ID/g
- Pancreas uptake ([1]; 1 h post-injection): 2.02 ± 0.32 % ID/g
- Salivary uptake ([1]; 1 h post-injection): 3.87 ± 0.70 % ID/g
- Seminal uptake ([1]; 1 h post-injection): 1.19 ± 0.18 % ID/g
- Spleen uptake ([1]; 1 h post-injection): 3.05 ± 0.63 % ID/g
- Stomach uptake ([1]; 1 h post-injection): 0.62 ± 0.09 % ID/g
- Tail uptake ([1]; 1 h post-injection): 4.42 ± 0.76 % ID/g
- Testes uptake ([1]; 1 h post-injection): 2.54 ± 0.34 % ID/g
- Thyroid uptake ([1]; 1 h post-injection): 4.20 ± 0.53 % ID/g
- Tumor uptake ([1]; 1 h post-injection): 17.2 ± 1.67 % ID/g
- Tumor:Blood ratio ([1]; 1 h post-injection): 0.78 ± 0.04
- Tumor:Muscle ratio ([1]; 1 h post-injection): 10.8 ± 1.15
- Tumor:kidney ratio ([1]; 1 h post-injection): 0.56 ± 0.06
- Urine uptake ([1]; 1 h post-injection): 14.6 ± 10.9 % ID/g
- Adrenal glands uptake ([1]; 3 h post-injection): 6.45 ± 1.03 % ID/g
- Blood uptake ([1]; 3 h post-injection): 17.4 ± 1.15 % ID/g
- Bone uptake ([1]; 3 h post-injection): 2.11 ± 0.62 % ID/g
- Brain uptake ([1]; 3 h post-injection): 0.28 ± 0.06 % ID/g
- Fat uptake ([1]; 3 h post-injection): 2.12 ± 0.69 % ID/g
- Heart uptake ([1]; 3 h post-injection): 3.89 ± 0.40 % ID/g
- Intestine uptake ([1]; 3 h post-injection): 1.29 ± 0.18 % ID/g
- Kidneys uptake ([1]; 3 h post-injection): 35.6 ± 7.23 % ID/g
- Lacrimal uptake ([1]; 3 h post-injection): 4.14 ± 3.82 % ID/g
- Liver uptake ([1]; 3 h post-injection): 2.96 ± 0.56 % ID/g
- Lungs uptake ([1]; 3 h post-injection): 7.50 ± 1.05 % ID/g
- Muscle uptake ([1]; 3 h post-injection): 1.26 ± 0.18 % ID/g
- Pancreas uptake ([1]; 3 h post-injection): 1.74 ± 0.30 % ID/g
- Salivary uptake ([1]; 3 h post-injection): 3.57 ± 1.07 % ID/g
- Seminal uptake ([1]; 3 h post-injection): 1.07 ± 0.12 % ID/g
- Spleen uptake ([1]; 3 h post-injection): 3.07 ± 0.78 % ID/g
- Stomach uptake ([1]; 3 h post-injection): 0.59 ± 0.13 % ID/g
- Tail uptake ([1]; 3 h post-injection): 3.52 ± 0.65 % ID/g
- Testes uptake ([1]; 3 h post-injection): 2.63 ± 0.49 % ID/g
- Thyroid uptake ([1]; 3 h post-injection): 3.40 ± 0.56 % ID/g
- Tumor uptake ([1]; 3 h post-injection): 30.1 ± 3.12 % ID/g
- Tumor:Blood ratio ([1]; 3 h post-injection): 1.75 ± 0.28
- Tumor:Muscle ratio ([1]; 3 h post-injection): 24.5 ± 5.08
- Tumor:kidney ratio ([1]; 3 h post-injection): 0.88 ± 0.22
- Urine uptake ([1]; 3 h post-injection): 33.8 ± 22.3 % ID/g
- change of tumor uptake from 1 h to 3 h post-injection [2]: uptake in tumors increases over time
- blood retention (qualitative) [2]: some extent of blood retention
Structure (SMILES): O=C([O-])CN1CCN(CC(=O)[O-])CCN(CC(=O)NCCCC[C@H](NC(=O)CNC(=O)CCCc2ccc(Cl)cc2)C(=O)NC[C@H]2CC[C@H](C(=O)N[C@@H](Cc3ccc4ccccc4c3)C(=O)NCCCC[C@H](NC(=O)N[C@@H](CCC(=O)O)C(=O)O)C(=O)O)CC2)CCN(CC(=O)[O-])CC1.[68Ga+3] [^68Ga-HTK03055]

- Adrenal glands uptake ([1]; 1 h post-injection): 3.99 ± 1.94 % ID/g
- Blood uptake ([1]; 1 h post-injection): 16.8 ± 2.14 % ID/g
- Bone uptake ([1]; 1 h post-injection): 0.71 ± 0.10 % ID/g
- Brain uptake ([1]; 1 h post-injection): 0.20 ± 0.02 % ID/g
- Fat uptake ([1]; 1 h post-injection): 1.87 ± 0.80 % ID/g
- Heart uptake ([1]; 1 h post-injection): 3.95 ± 0.72 % ID/g
- Intestine uptake ([1]; 1 h post-injection): 1.14 ± 0.13 % ID/g
- Kidneys uptake ([1]; 1 h post-injection): 24.3 ± 3.03 % ID/g
- Lacrimal uptake ([1]; 1 h post-injection): 0.16 ± 0.07 % ID/g
- Liver uptake ([1]; 1 h post-injection): 3.37 ± 0.85 % ID/g
- Lungs uptake ([1]; 1 h post-injection): 7.68 ± 1.33 % ID/g
- Muscle uptake ([1]; 1 h post-injection): 1.23 ± 0.15 % ID/g
- Pancreas uptake ([1]; 1 h post-injection): 1.36 ± 0.22 % ID/g
- Salivary uptake ([1]; 1 h post-injection): 2.48 ± 0.36 % ID/g
- Seminal uptake ([1]; 1 h post-injection): 0.90 ± 0.15 % ID/g
- Spleen uptake ([1]; 1 h post-injection): 2.00 ± 0.34 % ID/g
- Stomach uptake ([1]; 1 h post-injection): 0.59 ± 0.13 % ID/g
- Tail uptake ([1]; 1 h post-injection): 3.77 ± 0.91 % ID/g
- Testes uptake ([1]; 1 h post-injection): 1.95 ± 0.20 % ID/g
- Thyroid uptake ([1]; 1 h post-injection): 3.36 ± 0.24 % ID/g
- Tumor uptake ([1]; 1 h post-injection): 8.54 ± 0.74 % ID/g
- Tumor:Blood ratio ([1]; 1 h post-injection): 0.52 ± 0.10
- Tumor:Muscle ratio ([1]; 1 h post-injection): 7.09 ± 1.37
- Urine uptake ([1]; 1 h post-injection): 21.5 ± 9.93 % ID/g
- Adrenal glands uptake ([1]; 3 h post-injection): 2.89 ± 0.28 % ID/g
- Blood uptake ([1]; 3 h post-injection): 13.6 ± 1.23 % ID/g
- Bone uptake ([1]; 3 h post-injection): 0.64 ± 0.03 % ID/g
- Brain uptake ([1]; 3 h post-injection): 0.16 ± 0.02 % ID/g
- Fat uptake ([1]; 3 h post-injection): 1.30 ± 0.13 % ID/g
- Heart uptake ([1]; 3 h post-injection): 3.00 ± 0.41 % ID/g
- Intestine uptake ([1]; 3 h post-injection): 0.98 ± 0.16 % ID/g
- Kidneys uptake ([1]; 3 h post-injection): 30.0 ± 8.66 % ID/g
- Lacrimal uptake ([1]; 3 h post-injection): 0.10 ± 0.13 % ID/g
- Liver uptake ([1]; 3 h post-injection): 2.73 ± 0.90 % ID/g
- Lungs uptake ([1]; 3 h post-injection): 6.00 ± 0.88 % ID/g
- Muscle uptake ([1]; 3 h post-injection): 1.04 ± 0.12 % ID/g
- Pancreas uptake ([1]; 3 h post-injection): 1.27 ± 0.13 % ID/g
- Salivary uptake ([1]; 3 h post-injection): 2.15 ± 0.37 % ID/g
- Seminal uptake ([1]; 3 h post-injection): 0.89 ± 0.05 % ID/g
- Spleen uptake ([1]; 3 h post-injection): 1.93 ± 0.55 % ID/g
- Stomach uptake ([1]; 3 h post-injection): 0.63 ± 0.12 % ID/g
- Tail uptake ([1]; 3 h post-injection): 3.75 ± 1.53 % ID/g
- Testes uptake ([1]; 3 h post-injection): 2.08 ± 0.42 % ID/g
- Thyroid uptake ([1]; 3 h post-injection): 2.76 ± 0.21 % ID/g
- Tumor uptake ([1]; 3 h post-injection): 16.9 ± 3.16 % ID/g
- Tumor:Blood ratio ([1]; 3 h post-injection): 1.25 ± 0.32
- Tumor:Muscle ratio ([1]; 3 h post-injection): 16.6 ± 4.11
- Urine uptake ([1]; 3 h post-injection): 53.9 ± 14.6 % ID/g
- change of tumor uptake from 1 h to 3 h post-injection [2]: increases over time
- blood retention (qualitative) [2]: significantly higher blood retention
Structure (SMILES): Cc1ccc(CCCC(=O)NCC(=O)N[C@@H](CCCCNC(=O)CN2CCN(CC(=O)[O-])CCN(CC(=O)[O-])CCN(CC(=O)[O-])CC2)C(=O)NC[C@H]2CC[C@H](C(=O)N[C@@H](Cc3ccc4ccccc4c3)C(=O)NCCCC[C@H](NC(=O)N[C@@H](CCC(=O)O)C(=O)O)C(=O)O)CC2)cc1.[68Ga+3] [^68Ga-HTK03090]
